Data on 23 molecules can be found in paper PMC8318231, “Rate-of-Kill (RoK) assays to triage large compound sets for Chagas disease drug discovery: Application to GSK Chagas Box” (PLoS Neglected Tropical Diseases, 2021).

The subject of series [1] is H9c2 (rat cardiomyocytes). The experiment in a line: RoK assay, number of host cells nuclei (drug-related cytotoxicity, H9c2 output, Cmin_Tox). The settings on record: H9c2 host cells. The method, then:
For this high-content intracellular imaging assay, H9c2 cells were seeded in 225 cm^2 T- FLASK in DMEM with 10% FBS for 4 h to allow attachment. T. cruzi trypomastigotes, collected at days 5 to 8 after infection from LLC-MK2 parasite infected cultures, were allowed to swim out for 4 h at 37°C from a centrifuged pellet (1,600 x g / 10 min). Trypomastigotes were then collected and counted in a CASY Cell Counter using the 60 μm capillary. […] Cells were washed once with PBS before incubation of the infected H9c2 monolayer with trypsin (Life-Technologies) to detach cells from the flask. Cells were counted in a CASY Cell Counter, using the 150 μm capillary, and their density set at 5 x 10^4 cells/mL in supplemented DMEM. Infected H9c2 were dispensed into 384-well plates at 50 μL per well using a Multidrop Combi dispenser. Control wells used to determine a 100% parasitic growth (full 6th column of each plate) were left untreated, whereas not infected cells were added in the control wells used as 0% parasite growth (or 100% parasite growth inhibition; full 18th column of each plate). The four plates corresponding to each RoK assay were predispensed for the same mother plate. […] Cultures were then fixed and stained with 50 μL per well of a PBS solution containing 4% formaldehyde and 2 μM DRAQ5 DNA dye (BioStatus, UK). Then plates were read in a PerkinElmer Opera Phenix using a 20x objective, 3 fields per well. DRAQ5 signal was detected using 640 nm excitation laser and a 690/50 nm emission detection filter. Automated image analysis was performed with a script developed on Acapella High Content Imaging and Analysis Software (PerkinElmer). Two outputs were provided for each sample well: (1) number of host cells nuclei to determine drug-related cytotoxicity (aka H9c2) and (2) number of amastigotes per cell as infection level measurement (aka AM/CELL). Each output is plotted as a time course for each compound at every concentration. This assay was adapted from Alonso-Padilla et al. and Peña et al..
• ME (Maximum Effect) is the maximum percentage of parasite burden reduction reached by any compound concentration. Compounds that decrease the initial parasite load will show a positive value of ME, whereas compounds that allow the progression of infection will render a negative ME value. […] It is calculated for the MCC50 (t50%_MCC50) and for the maximum concentration (t50%_Cmax). […] The value of this parameter is not either interpolated or extrapolated, and it refers to the first experimental time-course point at which a 50% of effect is reached or exceeded. • tlag defines the time elapsed for one particular concentration to reduce parasite burden between two consecutive points at any moment of the time course. It is calculated for the MCC50 (tlag_MCC50) and for the maximum concentration (tlag_Cmax). The value of this parameter is not either interpolated or extrapolated, and it refers to the first experimental time-course point of a positive slope in the normalised plot (i.e. %Cidal_Response). • Cmin_Tox (Minimal CytoToxic Concentration) is the lowest compound concentration that is reducing the number of host mammalian cells below 50% of initial cell density. Cytotoxic compounds may mislead a bona fide antiparasitic action. Therefore, this descriptor is used to flag this kind of compounds and warn about the genuine meaning of the rest of descriptors.

Series [2] has as its system T. cruzi intracellular amastigotes in H9c2 cells. Description: RoK combination assay with BNZ. The settings on record: 50 μM BNZ. The format is cell-based, Trypanosoma cruzi. The method, then: The assay was performed following the same experimental procedure mentioned above in the RoK assay. The infected H9c2 cells were treated with final 10 and 50 μM concentrations of BNZ and DMSO before being dispensed into the plates containing the compounds. For the combination with 50 μM BNZ, two plates were incubated for 4 and 24 hours respectively before being fixed. For the combinations with 10 μM BNZ and with DMSO, four plates for each condition were incubated for 4, 24, 48 and 72 hours before being fixed.

Details of series [3]: method as in PMID 25805302. Particulars: cited from earlier work.
In the next series the test system is Trypanosoma cruzi. The settings on record: cited from earlier work.

Turning to `O=C(Cn1ccnc1[N+](=O)[O-])NCc1ccccc1` [Benznidazole, benznidazole, reference compound], the “Cmin_Tox” value in series [1] is more than 50 µM. Further, the AM/CELL in series [2] (no compound 1, 4 hours) came to 2.023; in series [2] (no compound 1, 24 hours), 1.3207. The “average time to interruption of treatment” value in series [3] is listed as 26.7 days.

As for `CC[C@@H]([C@H](C)O)n1ncn(-c2ccc(N3CCN(c4ccc(OC[C@@H]5CO[C@@](Cn6cncn6)(c6ccc(F)cc6F)C5)cc4)CC3)cc2)c1=O` [Posaconazole, reference compound], in series [1], the “Cmin_Tox” value was determined as 42.2 µM. Further, in the series with Trypanosoma cruzi, the “curative dose in mice” value is 20 mg/kg/day.

Turning to `CCn1nccc1CN(C)C(=O)C=Cc1ccc(Cl)cc1` [TCMDC-143325], the “Cmin_Tox” value in series [1] is on record as more than 50 µM.

With `CCCN(Cc1ccc(OC)c(OC)c1)Cc1cc(=O)c2c(C)cc(C)cc2[nH]1` [TCMDC-143331], the “Cmin_Tox” value in series [1] was more than 50 µM.

In the case of `O=C(O)C(F)(F)F.O=c1oc2ccccc2n1C1CCN(Cc2ccccc2-c2cccnc2)CC1` [TCMDC-143389], the “Cmin_Tox” value in series [1] is given as more than 50 µM.

As to `O=C(CN(c1cccc(C(F)(F)F)c1)S(=O)(=O)c1ccc(Cl)cc1)NCc1ccc(F)c(F)c1` [TCMDC-143548], the “Cmin_Tox” value in series [1] was more than 50 µM.

As for `CC(C)(C)C(Cn1ccnc1)NC(=O)c1ccc2nc(C3CC3)oc2c1` (stereo not drawn) [TCMDC-143336], in series [1], the “Cmin_Tox” value is listed as more than 50 µM.

Regarding `Cc1c(C(C)NC(=O)Nc2cccc(Cl)c2)sc2ncnn12` (stereo not drawn) [TCMDC-143405], the “Cmin_Tox” value in series [1] is given as more than 50 µM.

As for `Cc1c(C#N)c([N+](=O)[O-])nn1Cc1cccc(Cl)c1Cl` [TCMDC-143152], the “Cmin_Tox” value in series [1] is listed as more than 50 µM.

Turning to `CN(C)CCOc1ccc(N2CCN(S(=O)(=O)c3ccc(Cl)cc3)CC2)cc1` [TCMDC-143622], the “Cmin_Tox” value in series [1] is listed as more than 50 µM.

Take `Cc1[nH]nc2c1C(c1ccc(OCc3ccccc3F)cc1)SCC(=O)N2` (stereo not drawn) [TCMDC-143328]: the “Cmin_Tox” value in series [1] was more than 50 µM.

Regarding `CCOc1cnn(C)c(=O)c1Nc1ccc(C(=O)NCc2ccc(F)cc2)cc1` [TCMDC-143319], in series [1], the “Cmin_Tox” value is more than 50 µM.

For the molecule `CN(Cc1ccc(C(N)=O)cc1)C(c1ccc(F)cc1)c1cccnc1` (stereo not drawn) [TCMDC-143504], the “Cmin_Tox” value in series [1] is more than 50 µM.

Turning to `CCC(=O)Nc1ccc(-c2nc3ccc(Cl)cc3[nH]2)cc1` [TCMDC-143135], the “Cmin_Tox” value in series [1] was more than 50 µM.

For the molecule `Cn1cc(CN2CCN(c3ccc4c(c3)CCN(C(=O)[C@H]3C[C@@H]3c3ccccc3)CC4)CC2)cn1` [TCMDC-143537], the “Cmin_Tox” value in series [1] is more than 50 µM.

For `COc1cccc(C(=O)[C@H]2C[C@@H]2CN(Cc2cccnc2)Cc2cccnc2)c1` [TCMDC-143593], the “Cmin_Tox” value in series [1] is listed as more than 50 µM.

For the molecule `CN(C)Cc1ccc(N2CCC(NS(=O)(=O)c3ccc(Cl)cc3)CC2)cc1` [TCMDC-143623], the “Cmin_Tox” value in series [1] is given as 25.3 µM.

Consider `Cc1cc2cncn2c(C2CCCCN2C(=O)c2cccs2)n1` (stereo not drawn) [TCMDC-143500], for which the “Cmin_Tox” value in series [1] was more than 50 µM.

As to `O=C1CSC(c2cccnc2)N1c1ccc(Cl)cc1Cl` (stereo not drawn) [TCMDC-143114], the “Cmin_Tox” value in series [1] is recorded as more than 50 µM.

Regarding `O=C(CSc1ccc(-c2ccccn2)nn1)Nc1ccc(Cl)cc1` [TCMDC-143552], the “Cmin_Tox” value in series [1] is recorded as more than 50 µM.

On to `N#Cc1cc(N2CCCC2=O)ccc1Sc1ccccc1CO` [TCMDC-143604], for which the “Cmin_Tox” value in series [1] was more than 50 µM.

As to `O=c1[nH]cnc2c([C@@H]3O[C@H](CO)[C@@H](O)[C@H]3O)n[nH]c12` [TCMDC-143083, Formycin B], the “Cmin_Tox” value in series [1] is recorded as more than 50 µM.

For the molecule `COc1ccccc1-c1c(C)[nH]c2nc(N)nc(C)c12` [TCMDC-143610], the “Cmin_Tox” value in series [1] is listed as more than 50 µM.
